# From PubChem BioAssay (NCI)
#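 Grown in 96-well plates, cells were treated for 48 hours with each compound at five concentrations. Insufficient inhibition: endpoint recorded as highest concentration tested. Here, GI50 denotes the concentration required for 50% inhibition of growth. TGI: total growth inhibition.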
# Columns and labels:
# Experiment in all cases: NCI tumour cell line growth inhibition, 48 h
# RXF-631 renal = tested on: RXF-631 renal
# SNB-75 CNS = tested on: SNB-75 CNS
# CAKI-1 renal = tested on: CAKI-1 renal
# HCT-116 colon = tested on: HCT-116 colon
# A498 renal = tested on: A498 renal
# KM20L2 colon = tested on: KM20L2 colon
# NCI-H23 lung = tested on: NCI-H23 lung
# HOP-18 NSCLC = tested on: HOP-18 NSCLC
# HOP-62 NSCLC = tested on: HOP-62 NSCLC
# SK-OV-3 ovarian = tested on: SK-OV-3 ovarian
# SNB-19 CNS = tested on: SNB-19 CNS
# UACC-62 melanoma = tested on: UACC-62 melanoma
# RPMI-8226 leukemia = tested on: RPMI-8226 leukemia
# DMS 114 small cell lung = tested on: DMS 114 small cell lung
# SN12C renal = tested on: SN12C renal
# M19-MEL melanoma = tested on: M19-MEL melanoma
# 786-0 renal = tested on: 786-0 renal
# KM12 colon = tested on: KM12 colon
# HCT-15 colon = tested on: HCT-15 colon
# SK-MEL-5 melanoma = tested on: SK-MEL-5 melanoma
# SR leukemia = tested on: SR leukemia
# RXF 393 renal = tested on: RXF 393 renal
# DMS 273 small cell lung = tested on: DMS 273 small cell lung
# DLD-1 colon = tested on: DLD-1 colon
# HCC-2998 colon = tested on: HCC-2998 colon
# MALME-3M melanoma = tested on: MALME-3M melanoma
# HL-60(TB) leukemia = tested on: HL-60(TB) leukemia
# HOP-92 NSCLC = tested on: HOP-92 NSCLC
# TK-10 renal = tested on: TK-10 renal
# K-562 leukemia = tested on: K-562 leukemia
# OVCAR-5 ovarian = tested on: OVCAR-5 ovarian
# U251 CNS = tested on: U251 CNS
# NCI-H226 lung = tested on: NCI-H226 lung
# OVCAR-4 ovarian = tested on: OVCAR-4 ovarian
# SNB-78 CNS = tested on: SNB-78 CNS
# IGROV1 ovarian = tested on: IGROV1 ovarian
# EKVX NSCLC = tested on: EKVX NSCLC
# LXFL 529 NSCLC = tested on: LXFL 529 NSCLC
# SK-MEL-2 melanoma = tested on: SK-MEL-2 melanoma
# ACHN renal = tested on: ACHN renal
# SF-295 CNS = tested on: SF-295 CNS
# MOLT-4 leukemia = tested on: MOLT-4 leukemia
# UO-31 renal = tested on: UO-31 renal
# SF-268 CNS = tested on: SF-268 CNS
# SF-539 CNS = tested on: SF-539 CNS
# NCI-H522 lung = tested on: NCI-H522 lung
# A549 NSCLC = tested on: A549 NSCLC
# LOX IMVI melanoma = tested on: LOX IMVI melanoma
# COLO 205 colon = tested on: COLO 205 colon
# XF 498 CNS = tested on: XF 498 CNS
# M14 melanoma = tested on: M14 melanoma
# OVCAR-8 ovarian = tested on: OVCAR-8 ovarian
# OVCAR-3 ovarian = tested on: OVCAR-3 ovarian
# CCRF-CEM leukemia = tested on: CCRF-CEM leukemia
# HT29 colon = tested on: HT29 colon
# UACC-257 melanoma = tested on: UACC-257 melanoma
# NCI-H460 lung = tested on: NCI-H460 lung
# SW-620 colon = tested on: SW-620 colon
# SK-MEL-28 melanoma = tested on: SK-MEL-28 melanoma
compound,measurement,setting,value
CC[C@@]1(O)C(=O)OCc2c1cc1n(c2=O)Cc2cc3c(NC(C)=O)c(O)ccc3nc2-1,GI50,RXF-631 renal,4.47 µM
same,TGI,RXF-631 renal,> 100 µM
same,GI50,SNB-75 CNS,0.744 µM
same,TGI,SNB-75 CNS,7.31 µM
same,GI50,CAKI-1 renal,0.468 µM
same,TGI,CAKI-1 renal,13.7 µM
same,GI50,HCT-116 colon,2.41 µM
same,TGI,HCT-116 colon,24.6 µM
same,GI50,A498 renal,5.9 µM
same,TGI,A498 renal,22.5 µM
same,GI50,KM20L2 colon,16.3 µM
same,TGI,KM20L2 colon,> 100 µM
same,GI50,NCI-H23 lung,0.762 µM
same,TGI,NCI-H23 lung,9.15 µM
same,GI50,HOP-18 NSCLC,7.57 µM
same,TGI,HOP-18 NSCLC,> 100 µM
same,GI50,HOP-62 NSCLC,0.214 µM
same,TGI,HOP-62 NSCLC,0.631 µM
same,GI50,SK-OV-3 ovarian,1.4 µM
same,TGI,SK-OV-3 ovarian,45.7 µM
same,GI50,SNB-19 CNS,0.917 µM
same,TGI,SNB-19 CNS,> 56.6 µM
same,GI50,UACC-62 melanoma,0.272 µM
same,TGI,UACC-62 melanoma,2.71 µM
same,GI50,RPMI-8226 leukemia,4.58 µM
same,TGI,RPMI-8226 leukemia,56.8 µM
same,GI50,DMS 114 small cell lung,0.353 µM
same,TGI,DMS 114 small cell lung,7.58 µM
same,GI50,SN12C renal,0.456 µM
same,TGI,SN12C renal,> 20.8 µM
same,GI50,M19-MEL melanoma,4.93 µM
same,TGI,M19-MEL melanoma,43.7 µM
same,GI50,786-0 renal,0.373 µM
same,TGI,786-0 renal,2.17 µM
same,GI50,KM12 colon,14.4 µM
same,TGI,KM12 colon,> 61.3 µM
same,GI50,HCT-15 colon,18 µM
same,TGI,HCT-15 colon,> 100 µM
same,GI50,SK-MEL-5 melanoma,2.08 µM
same,TGI,SK-MEL-5 melanoma,8.97 µM
same,GI50,SR leukemia,< 0.0148 µM
same,TGI,SR leukemia,0.108 µM
same,GI50,RXF 393 renal,2.34 µM
same,TGI,RXF 393 renal,20.2 µM
same,GI50,DMS 273 small cell lung,0.296 µM
same,TGI,DMS 273 small cell lung,8.33 µM
same,GI50,DLD-1 colon,43.3 µM
same,TGI,DLD-1 colon,> 100 µM
same,GI50,HCC-2998 colon,8.21 µM
same,TGI,HCC-2998 colon,47.1 µM
same,GI50,MALME-3M melanoma,4.83 µM
same,TGI,MALME-3M melanoma,65.5 µM
same,GI50,HL-60(TB) leukemia,0.416 µM
same,TGI,HL-60(TB) leukemia,5.05 µM
same,GI50,HOP-92 NSCLC,7.76 µM
same,TGI,HOP-92 NSCLC,51.9 µM
same,GI50,TK-10 renal,> 71.4 µM
same,TGI,TK-10 renal,> 100 µM
same,GI50,K-562 leukemia,3.47 µM
same,TGI,K-562 leukemia,> 70.2 µM
same,GI50,OVCAR-5 ovarian,4.19 µM
same,TGI,OVCAR-5 ovarian,> 100 µM
same,GI50,U251 CNS,0.252 µM
same,TGI,U251 CNS,4.46 µM
same,GI50,NCI-H226 lung,2.98 µM
same,TGI,NCI-H226 lung,> 20.3 µM
same,GI50,OVCAR-4 ovarian,14.6 µM
same,TGI,OVCAR-4 ovarian,44.7 µM
same,GI50,SNB-78 CNS,28.9 µM
same,TGI,SNB-78 CNS,> 100 µM
same,GI50,IGROV1 ovarian,6.27 µM
same,TGI,IGROV1 ovarian,> 88.5 µM
same,GI50,EKVX NSCLC,81.4 µM
same,TGI,EKVX NSCLC,> 100 µM
same,GI50,LXFL 529 NSCLC,12.5 µM
same,TGI,LXFL 529 NSCLC,> 100 µM
same,GI50,SK-MEL-2 melanoma,17.8 µM
same,TGI,SK-MEL-2 melanoma,53.5 µM
same,GI50,ACHN renal,0.389 µM
same,TGI,ACHN renal,2.85 µM
same,GI50,SF-295 CNS,0.721 µM
same,TGI,SF-295 CNS,> 32.1 µM
same,GI50,MOLT-4 leukemia,0.133 µM
same,TGI,MOLT-4 leukemia,0.968 µM
same,GI50,UO-31 renal,1.76 µM
same,TGI,UO-31 renal,16.2 µM
same,GI50,SF-268 CNS,0.417 µM
same,TGI,SF-268 CNS,> 52.3 µM
same,GI50,SF-539 CNS,0.388 µM
same,TGI,SF-539 CNS,1.96 µM
same,GI50,NCI-H522 lung,0.565 µM
same,TGI,NCI-H522 lung,14.5 µM
same,GI50,A549 NSCLC,1.68 µM
same,TGI,A549 NSCLC,> 100 µM
same,GI50,LOX IMVI melanoma,0.497 µM
same,TGI,LOX IMVI melanoma,6.31 µM
same,GI50,COLO 205 colon,17.6 µM
same,TGI,COLO 205 colon,> 100 µM
same,GI50,XF 498 CNS,5.39 µM
same,TGI,XF 498 CNS,51 µM
same,GI50,M14 melanoma,1.04 µM
same,TGI,M14 melanoma,15.8 µM
same,GI50,OVCAR-8 ovarian,1.54 µM
same,TGI,OVCAR-8 ovarian,> 47.7 µM
same,GI50,OVCAR-3 ovarian,9.7 µM
same,TGI,OVCAR-3 ovarian,41.1 µM
same,GI50,CCRF-CEM leukemia,0.0542 µM
same,TGI,CCRF-CEM leukemia,1.07 µM
same,GI50,HT29 colon,13.7 µM
same,TGI,HT29 colon,> 77.5 µM
same,GI50,UACC-257 melanoma,10.8 µM
same,TGI,UACC-257 melanoma,> 86.6 µM
same,GI50,NCI-H460 lung,0.288 µM
same,TGI,NCI-H460 lung,4.24 µM
same,GI50,SW-620 colon,1.94 µM
same,TGI,SW-620 colon,> 100 µM
same,GI50,SK-MEL-28 melanoma,> 25.9 µM
same,TGI,SK-MEL-28 melanoma,> 100 µM
